Data set [1] concerns HCMV. The conditions noted are these: background, literature report; cited from earlier work.
In the next data set the test system is Hepatitis B Virus (HBV). Briefly: Activity against Hepatitis B Virus (Jansen et al.). The conditions noted are these: two separate tests. It counts as cell-based. How it is done: The activity of compounds against Hepatitis B Virus (HBV) was assessed as described in Jansen, R., et al., Antimicrobial Agents and Chemotherapy, Vol. 37, No. 3, pp. 441-447, 1993.

The test system of a further data set is HCMV Strain AD169. The data set can be described thus: HCMV plaque reduction assay, strain AD169. It counts as cell-based, Human cytomegalovirus. The conditions noted are these: Human betaherpesvirus 5, Table 3, read-out: HCMV Strain AD169 plaque 50% Inhibitory Concentration (IC50). On the procedure: (§1) HFF cells in 24-well cluster dishes were infected with approximately 100 p.f.u. of HCMV per cm^2 cell sheet using the procedures detailed above. Following virus adsorption, compounds dissolved in growth medium were added to duplicate wells in four to eight selected concentrations. After incubation at 37° C. for 7 to 10 days, cell sheets were fixed, stained with crystal violet and microscopic plaques enumerated as described above.
(§2) Dose-response relationships were constructed by linearly regressing the percent inhibition of parameters derived in the preceding sections against log drug concentrations. Fifty-percent inhibitory concentrations (IC50's) or IC90's were calculated from the regression lines. Samples containing positive controls (acyclovir for HSV-1, ganciclovir for HCMV, and 2-acetylpyridine thiosemicarbazone for cytotoxicity) were used in all assays.

The nature of data set [2]: Inhibition of KB cell growth (crystal violet). It counts as cell-based. The conditions noted are these: human, KB cells; KB cell growth, 48 hours, quadruplicate; read-out: Cytotoxicity growth (IC50). How it is done:
(§3) Two different assays were used for routine cytotoxicity testing. (i) Cytotoxicity produced in stationary HFF cells was determined by microscopic inspection of cells not affected by the virus used in plaque assays (see Turk, S. R.; Shipman, C., Jr.; Nassiri, M. R.; Genzingler, G.; Krawczyk, S. H.; Townsend, L. B.; Drach, J. C. Pyrrolo[2,3-]pyrimidine Nucleosides as Inhibitors of Human Cytomegalovirus, Antimicrob. Agents Chemother. 1987, 31, 544-550). (ii) The effect of compounds during two population doublings of KB cells was determined by crystal violet staining and spectrophotometric quantitation of dye eluted from stained cells as described earlier (see Prichard, M. N.; Prichard, L. E., Baguley, W. A.; Nassiri, M. R.; Shipman, C., Jr. Three-Dimensional Analysis of the Synergistic Cytotoxicity of Ganciclovir and Zidovudine. Antiviral Res. 1991, 35, 1060-1065). Briefly, 96-well cluster dishes were planted with KB cells at 3000-5000 cells per well. After overnight incubation at 37° C., test compound was added in quadruplicate at six to eight concentrations. Plates were incubated at 37° C. for 48 hours in a CO2 incubator, rinsed, fixed with 95% ethanol, and stained with 0.1% crystal violet. Acidified ethanol was added and plates read at 570 nm in a spectrophotometer designed to read 96-well ELISA assay plates.
as §2

Data set [3] is described as follows: Visual cytotoxicity in stationary HFF cells. It counts as cell-based. The conditions noted are these: human; HFF cells, scored at time of HCMV plaque enumeration; read-out: Cytotoxicity visual (IC50). On the procedure:
as §3, §2

For data set [4], the system named is HSV-1. Briefly: HSV-1 ELISA in BSC-1 cells. The class given is cell-based, herpes simplex virus 1. As to conditions: Human alphaherpesvirus 1, quadruplicate wells, read-out: HSV-1 ELISA 50% Inhibitory Concentration (IC50). How it is done: An ELISA was employed (see Prichard, M. N.; Shipman, C., Jr. A Three Dimensional Model to Analyze Drug-Drug Interactions. Antiviral Res. 1990, 14, 181-206) to detect HSV-1. Ninety-six-well cluster dishes were planted with 10,000 BSC-1 cells per well in 200 μL per well of MEM(E) plus 10% calf serum. After overnight incubation at 37° C., selected drug concentrations in quadruplicate and HSV-1 at a concentration of 100 p.f.u./well were added. Following a 3-day incubation at 37° C., medium was removed, plates were blocked, rinsed, and horse radish peroxidase conjugated rabbit anti-HSV-1 antibody was added. Following removal of the antibody containing solution, plates were rinsed, and then developed by adding 150 μL per well of a solution of tetramethylbenzidine as substrate. The reaction was stopped with H2SO4 and absorbance was read at 450 and 570 nm. Drug effects were calculated as a percentage of the reduction in absorbance in the presence of each drug concentration compared to absorbance obtained with virus in the absence of drug.
as §2
A general note: ELISA stands for enzyme-linked immunosorbent assay.

Data set [5] has as its system HCMV. The data set can be described thus: HCMV plaque reduction assay (Towne strain) in HFF cells. It counts as cell-based, Human cytomegalovirus. On the procedure: (§4) Stock HCMV was prepared by infecting HFF cells at a multiplicity of infection (m.o.i.) of <0.01 plaque-forming units (p.f.u.) per cell as detailed previously (see Turk, S. R.; Shipman, C., Jr.; Nassiri, M. R.; Genzingler, G.; Krawczyk, S. H.; Townsend, L. B.; Drach, J. C. Pyrrolo[2,3-d]pyrimidine Nucleosides as Inhibitors of Human Cytomegalovirus, Antimicrob. Agents Chemother. 1987, 31, 544-550). High titer HSV-1 stocks were prepared by infecting KB cells (ATCC) at an m.o.i. of <0.1 also as detailed previously (see Turk, S. R.; Shipman, C., Jr.; Nassiri, M. R.; Genzingler, G.; Krawczyk, S. H.; Townsend, L. B.; Drach, J. C. Pyrrolo[2,3-d]pyrimidine Nucleosides as Inhibitors of Human Cytomegalovirus, Antimicrob. Agents Chemother. 1987, 31, 544-550). Virus titers were determined using monolayer cultures of HFF cells for HCMV and monolayer cultures of BSC-1 cells for HSV-1 as described earlier (see Prichard, M. N.; Turk, S. R.; Coleman, L. A.; Engelhardt, S. L.; Shipman, C., Jr.; Drach, J. C. A Microtiter Virus Yield Reduction Assay for the Evaluation of Antiviral Compounds Against Human Cytomegalovirus and Herpes Simplex Virus. J. Virol. Methods 1990, 28, 101-106). Briefly, HFF or BSC-1 cells were planted as described above in 96-well cluster dishes and incubated overnight at 37° C. The next day cultures were inoculated with HCMV or HSV-1 and serially diluted 1:3 across the remaining eleven columns of the 96-well plate. After virus adsorption the inoculum was replaced with fresh medium and cultures were incubated for seven days for HCMV, two or three days for HSV-1. Plaques were enumerated under 20-fold magnification in wells having the dilution which gave 5 to 20 plaques per well. Virus titers were calculated according to the following formula: Titer (p.f.u./mL)=number of plaques×5×3^n; where n represents the nth dilution of the virus used to infect the well in which plaques were enumerated.
as §1, §2

The test system of data set [6] is HCMV. Briefly: HCMV yield reduction assay (Towne strain) in HFF cells. The class given is cell-based, Human cytomegalovirus. How it is done:
as §4
HFF cells were planted as described above in 96-well cluster dishes, incubated overnight, medium removed and the cultures were inoculated with HCMV at a m.o.i. of 0.5 to 1 p.f.u. per cell as reported elsewhere (see Prichard, M. N.; Turk, S. R.; Coleman, L. A.; Engelhardt, S. L.; Shipman, C., Jr.; Drach, J. C. A Microtiter Virus Yield Reduction Assay for the Evaluation of Antiviral Compounds Against Human Cytomegalovirus and Herpes Simplex Virus. J. Virol. Methods 1990, 28, 101-106). After virus adsorption, inoculum was replaced with 0.2 mL of fresh medium containing test compounds. The first row of 12 wells was left undisturbed and served as virus controls. Each well in the second row received an additional 0.1 mL of medium with test compound at three times the desired final concentration. The contents of the 12 wells were mixed by repeated pipetting and then serially diluted 1:3 along the remaining wells. In this manner, six compounds could be tested in duplicate on a single plate with concentrations from […]. Plates were incubated at 37° C. for seven days, subjected to one cycle of freezing and thawing; aliquots from each of the eight wells of a given column were transferred to the first column of a fresh 96-well monolayer culture of HFF cells. Contents were mixed and serially diluted 1:3 across the remaining eleven columns of the secondary plate. Each column of the original primary plate was diluted across a separate plate in this manner. Cultures were incubated, plaques were enumerated, and titers calculated as described above.
as §2

For data set [7], the system named is HSV-1. The data set can be described thus: HSV-1 plaque assay (used for DHPG). As to conditions: Human alphaherpesvirus 1; plaque assay used for DHPG instead of ELISA (footnote b); read-out: HSV-1 plaque assay 50% Inhibitory Concentration (IC50). The class given is cell-based, herpes simplex virus 1. How it is done:
as §4, with “Briefly, HFF or BSC-1 cells were planted as described above in 96-well cluster dishes and incubated overnight at 37° C. The next day cultures were inoculated with HCMV or HSV-1 and serially diluted 1:3 across the remaining eleven columns of the 96-well plate. After virus adsorption the inoculum was replaced with fresh medium and cultures were incubated for seven days for HCMV, two or three days for HSV-1. Plaques were enumerated under 20-fold magnification in wells having the dilution which gave 5 to 20 plaques per well.” left out

Where [8] appears, read: Human betaherpesvirus 5, HFF, Table 3, same data as Table 2, read-out: HCMV Strain Towne plaque 50% Inhibitory Concentration (IC50).
Where [9] appears, read: Human betaherpesvirus 5, Table 2, HFF cells, duplicate, read-out: HCMV plaque 50% Inhibitory Concentration (IC50).
Setting [10] is: Human betaherpesvirus 5, HFF, Table 3, same data as Table 2, read-out: HCMV Strain Towne yield 90% Inhibitory Concentration (IC90).
[11] abbreviates: Human betaherpesvirus 5, Table 2, HFF cells, duplicate, read-out: HCMV yield 90% Inhibitory Concentration (IC90).

Values joined by “and” are separate entries in the source; they are usually repeats but may differ in a detail not shown here. Identical values can stand only once. Like-named read-outs stand apart in the source and are kept apart here.

Regarding `OC[C@H]1O[C@@H](n2c(Br)nc3cc(Cl)c(Cl)cc32)[C@H](O)[C@@H]1O` [BDCRB, 2-bromo-5,6-dichloro-1-(β-D-ribofuranosyl)benzimidazole], the “inhibition of HCMV” value in the data set on HCMV [1] is recorded as “significant inhibitors of HCMV”.
In general, melting point refers to the temperature of the solid-liquid transition. With `OC[C@@H]1O[C@@H](n2c(Br)nc3cc(Cl)c(Cl)cc32)[C@H](O)[C@@H]1O` [Compound 5a, 2-Bromo-5,6dichloro-1-(α-L-lyxofuranosyl)benzimidazole], the melting point is 178 to 179 °C. Further, in the data set with Hepatitis B Virus (HBV) (Hepatitis B virus), the IC50 came to 8.8 µM. The same molecule came in with an IC50 with Hepatitis B Virus (HBV) of 16 µM. Moreover, in the data set with HCMV Strain AD169, the IC50 was 0.8 µM. Further, in data set [2], the IC50 at 48 h was > 100 µM. In addition, the IC50 in [3] was > 100 µM. The IC50 with HSV-1 [4] is > 100 µM. Also, the IC50 in the data set on HCMV [5] (setting [8]) is 2.8 µM. Further, the IC50 in the data set with HCMV [5] (setting [9]) stood at 2.8 µM. Further, the IC90 with HCMV [6] (setting [10]) came out at 0.8 µM. Further, the IC90 in the data set on HCMV [6] (setting [11]) turned out to be 0.8 µM.
Regarding `CNc1nc2cc(Cl)c(Cl)cc2n1[C@@H]1O[C@@H](CO)[C@@H](O)[C@H]1O` [Compound 6a, 5,6-Dichloro-1-(α-L-lyxofuranosyl)-2-(methylamino)benzimidazole], the melting point is 126 to 128 °C and 131 to 132 °C. Further, the IC50 at 48 h in data set [2] is > 100 µM. The IC50 in data set [3] was > 100 µM. The IC50 in the data set on HSV-1 [4] is > 100 µM. Also, the IC50 with HCMV [5] (setting [9]) is > 100 µM.
`OC[C@@H]1O[C@@H](n2c(=S)[nH]c3cc(Cl)c(Cl)cc32)[C@H](O)[C@@H]1O` [Compound 9a, 5,6-Dichloro-1-(α-L-lyxofuranosyl)benzimidazol-2-thione] yielded a melting point of 234 to 236 °C. Further, in [2], the IC50 at 48 h is > 100 µM. The IC50 in data set [3] is > 100 µM. Further, the IC50 with HSV-1 [4] was > 100 µM. Further, the IC50 in the data set with HCMV [5] (setting [9]) was > 100 µM. In addition, the IC90 in the data set with HCMV [6] (setting [11]) is > 100 µM.
Consider `OC[C@H]1O[C@@H](n2c(Cl)nc3cc(Cl)c(Cl)cc32)[C@H](O)[C@@H]1O` [TCRB, 2,5,6-trichloro-1-(β-D-ribofuranosyl)benzimidazole, reference compound], for which the figures for the IC50 with HCMV Strain AD169 and with HCMV [5] (setting [8]) were 1.8 µM and 2.9 µM, respectively. The “inhibition of HCMV” value with HCMV [1] is “significant inhibitors of HCMV”. Besides, the IC90 in the data set with HCMV [6] (setting [10]) was 1.4 µM.
For the molecule `Nc1nc(O)c2ncn(COC(CO)CO)c2n1` [ganciclovir (DHPG), ganciclovir, reference compound], the results for the IC50 (in the data set on HSV-1 [7]; in [3]; with HCMV [5] (setting [9])) were 3.5 ± 2.1 µM, > 100 µM and 7.4 ± 6.5 µM, respectively. Besides, the IC50 at 48 h in data set [2] is > 100 µM. The IC90 in the data set on HCMV [6] (setting [11]) was 1.6 ± 1.2 µM.

(Values after US6455506B1, “Lyxofuranosyl benzimidazoles as antiviral agents” (SmithKline Beecham Corporation, priority 1997, dated 2002).)
